# Results as given in patent US10053502B2, “Selective inhibitors of c-Fos and their antiproliferative properties” (INSERM (INSTITUT NATIONAL DE LA SANTÉ ET DE LA RECHERCHE …, priority 2014, dated 2018).
# Read-outs that look alike come from different tables or passages of the source. Residues, ends and D or L forms follow the SMILES beside them.
# Key:
# [1] = system: sNF96.2 (MPNST cell line); type: cell-based, human; details: MTT, 96 hours; for anti-proliferative properties on MPNST (words): 2 to 100 μM
# Procedure: The inventors have further tested 4 different peptides in the Peripheral Nerve Sheath Tumors (MPNST) cell lines sNF96.2, which was deposited to the ATCC under the reference ATCC® CRL-2884™.
# Cells were cultured at DayO in a complete medium (DMEM with 10% of fetal bovine serum). Then they were deprived at Day2 (24 hours in a medium comprising DMEM with 0.1% fetal bovine serum followed by 24 hours in DMEM alone).
# At Day 4, the cells were incubated with a dose escalation regimen of pepsignal peptides from 2 to 100 μM.
# The proliferation tests were carried out 96 hours later.
# Proliferation was analysed by a MTT assay. The MTT assay is a colorimetric assay for assessing cell viability. The viability is measured by the metabolic activity if the cells, which is determined by the activity of a mitochondrial succinate dehydrogenate. Typically, the cell media goes from yellow to blue and the intensity of the coloration is proportional to the number of viable cells. Coloration is determined by […] at 570 nm.
# The inventors performed three independent experiments, each point being performed in duplicate for each experiment.
# NIH3T3 cells = assay: Serum-induced proliferation of NIH3T3 fibroblasts, BrdU incorporation; type: cell-based, mouse; details: 10% serum; BrdU 3 h; peptide 1 to 12 μM, U0126 10 μM
# Procedure: On day one, 10 000 cells per well were grown in the presence of 10% serum.
# NIH 3T3 mouse embryonic fibroblast cells were grown in DMEM supplemented with 10% (v/v) heat-inactivated FBS, 100 U/ml penicillin, and 100 μg/ml streptomycin.
# (§1) 10 000 cells per well were grown in the presence of complete medium. After one cycle of cell division (around 32 hours for HCAEC and vSMC, 24 hours for NIH3T3), the cells were starved for one other cycle (0.1% serum or nutriment supplement for HCAEC). […] Proliferation was analyzed after BrdU incorporation, which allows the visualization of cells under division. For HCAEC and vSMC, BrdU was added with inhibitor. For NIH3T3, it was added only during the last three hours. Cells were fixed in 4% paraformaldehyde.
# (§2) Only the nuclei with an intact nucleus were taken into account. Image-Pro Plus software (Media Cybernetics) was used in order to quantify BrdU positive cells. The percentage of positive cells was reported to the total number of Hoechst-positive cells.
# [2] = system: vascular smooth muscle cells (vSMC); assay: Serum-induced proliferation of vSMC, BrdU incorporation; type: cell-based, human; details: 3, 6 and 12 μM, 10% serum
# Procedure: On day one, 10 000 cells per well were grown in the presence of 10% serum. […] On the bases of our previous results in neuronal cells (see Lavaur et al., 2007) three different doses of pepsignal were tested: from 3 to 12 μM.
# Using the same protocol as in FIG. 3, cells were grown in the presence of 10% FBS (serum) after withdrawal. The peptide TAT-DEF-c-Fos was applied once (6 or 12 μM) on day one (first day after withdrawal) and proliferation was tested using a BrdU assay 24, 48 or 72 hours later. When indicated, multiple applications of the peptide were done (“m”) every 24 hours. Note that the TAT-DEF-c-Fos12 μM is not reported herein; n=3; Two-way ANOVA; Bonferroni post hoc test; *** p<0.001 when compared to the group treated with 10% serum.
# Primary vascular smooth muscle cells (vSMC) (ATCC CRL-1999) were grown in DMEM F12K medium supplemented 0.05 mg/ml ascorbic acid; 0.01 mg/ml insulin; 0.01 mg/ml transferrin; 10 ng/ml sodium selenite; 10% (v/v) heat-inactivated FBS (Fetal Bovine Serum), 100 U/ml penicillin, and 100 μg/ml streptomycin, 10 mM HEPES.
# 10 000 cells per well were grown in the presence of complete medium. […] Proliferation was analyzed after BrdU incorporation, which allows the visualization of cells under division. […]
# Only the nuclei with an intact nucleus were taken into account. Image-Pro Plus software (Media Cybernetics) was used in order to quantify BrdU positive cells. […]
# [3] = system: human coronary arterial endothelial cells (HCAEC); assay: Serum-induced proliferation of HCAEC, BrdU incorporation; type: cell-based; details: 10% serum, peptide 3-12 μM, U0126 10 μM, Paclitaxel 10 nM, VIVIT 100 μM
# Procedure: Using the same protocol than in FIG. 3, cells were grown in the presence of 10% serum after withdrawal. The peptide TAT-DEF-c-Fos was applied at a single dose one day after withdrawal. Proliferation was tested using a BrdU assay; n=3; One-way ANOVA; Dunett post hoc test; * p<0.05; when compared to the group treated with 10% serum
# Primary human coronary arterial endothelial cells (HCAEC) (Promocell C12222) were grown in Endothelial Cell Growth Medium MV2 (Promocell).
# as §1, §2
# [4] = system: malignant peripheral nerve sheat tumors (MPNST) from NF1 patients; assay: Proliferation of MPNST cell lines from NF1 patients; type: cell-based; details: Homo sapiens, read-out: IC50, inhibition of proliferation of MPNST, 15% serum, control
# Procedure: Human cell lines from malignant peripheral nerve sheat tumors (MPNST) were treated with either TAT-DEF-c-Fos at increasing doses, or as a control, with Rapamycin, an inhibitor of the mTOR pathway that is classically used as an inhibitor of proliferation on this cell line. The TAT-DEF-c-Fos peptide inhibited proliferation of MPNST at very low doses when compared to Rapamycin (IC50 for TAT-DEF-c-Fos around 10 μM instead of 10 mM for Rapamycin).
# Malignant Peripheral Nerve Sheath Tumors (MPNST: from NF1 patients) were obtained from Michel Videaud's laboratory. 2000 cells were grown in the presence of 15% serum after withdrawal.
# The inventors tested the efficacy of TAT-DEF-c-Fos on malignant NF1 cell proliferation (FIG. 9). For this purpose, the inventors used Human cell lines from malignant peripheral nerve sheat tumors (MPNST) from NF1 patients.
# The MPNST cell lines were derived from a recurrent mass associated with peripheral nerve sheat and diagnosed as MPNST (Malignant Peripheral Nerve Sheath Tumor) in patients meeting NF1 diagnostic criteria.
# vSMC = assay: Wound healing assay (invasiveness) in vSMC; type: cell-based, human; details: 24 to 72 hours, U0126 10 μM, Paclitaxel 10 nM, 10% serum
# Procedure: The peptide was applied once, at the same time as 10% serum. The invasiveness was calculated as the percentage of cells over the size of the lesion, 24, 48 and 72 hours post-lesion.
# Cells were cultured in 24-well plates as a confluent monolayer (30000 cells plated per well). […] Cells were fixed in 4% paraformaldehyde then stained with cresyl violet dye (1% in methanol). Pictures were taken to visualize the marked wound location. The wound healing effect was measured using the NIH ImageJ program and expressed as percentage of recovery of the lesion.
# Invasive properties were studied using the wound healing protocol.
# The percentage of lesion recovery was measured after cresyl violet staining of vSMC cells (FIG. 8).
Compound,anti-proliferative properties on MPNST (words) [1],inhibition of NIH3T3 fibroblast proliferation (NIH3T3 cells),inhibition of HCAEC cell proliferation [3],effect on vSMC invasiveness (wound healing) (vSMC),also measured
CC[C@H](C)[C@H](NC(=O)[C@H](Cc1c[nH]cn1)NC(=O)[C@@H](NC(=O)[C@H](CCC(N)=O)NC(=O)[C@H](C)NC(=O)[C@H](CO)NC(=O)CNC(=O)[C@H](CO)NC(=O)[C@H](CO)NC(=O)[C@@H]1CCCN1C(=O)[C@H](Cc1ccccc1)NC(=O)[C@H](CCC(N)=O)NC(=O)[C@H](Cc1ccccc1)NC(=O)[C@H](CO)NC(=O)[C@H](CC(C)C)NC(=O)[C@H](CCCCN)NC(=O)[C@H](C)NC(=O)[C@@H]1CCCN1C(=O)[C@H](CO)NC(=O)[C@@H]1CCCN1C(=O)[C@@H]1CCCN1C(=O)[C@H](CCCNC(=N)N)NC(=O)[C@H](CCCNC(=N)N)NC(=O)[C@H](CCCNC(=N)N)NC(=O)[C@H](CCC(N)=O)NC(=O)[C@H](CCCNC(=N)N)NC(=O)[C@H](CCCNC(=N)N)NC(=O)[C@H](CCCCN)NC(=O)[C@H](CCCCN)NC(=O)[C@H](CCCNC(=N)N)NC(=O)CN)C(C)C)C(=O)O [TAT-DEF-Elk-1] (H-GRKKRRQRRRPPSPAKLSFQFPSSGSAQVHI-OH; N-terminus and C-terminus assumed),slight inhibitory effect,no effect,no effect,–,"anti-proliferative properties on MPNST (words) ([1]; listed as TAT-DEF-Elk1): low anti-proliferative properties; inhibition of proliferation of sNF96.2, maximum reached ([1]; even at higher doses (up to 100 μM)): < 50%; anti-proliferative properties on vSMC (serum-induced proliferation) [2]: not and no effect"
CC[C@H](C)[C@H](NC(=O)[C@H](CCCCN)NC(=O)[C@@H](NC(=O)[C@H](CCC(N)=O)NC(=O)[C@@H](N)CCCNC(=N)N)[C@@H](C)CC)C(=O)N[C@@H](Cc1c[nH]c2ccccc12)C(=O)N[C@@H](Cc1ccccc1)C(=O)N[C@@H](Cc1c[nH]c2ccccc12)C(=O)N[C@@H](CC(N)=O)C(=O)N[C@@H](CCCNC(=N)N)C(=O)N[C@@H](CCCNC(=N)N)C(=O)N[C@@H](CCSC)C(=O)N[C@@H](CCCCN)C(=O)N[C@@H](Cc1c[nH]c2ccccc12)C(=O)N[C@@H](CCCCN)C(=O)N[C@@H](CCCCN)C(=O)N1CCC[C@H]1C(=O)N1CCC[C@H]1C(=O)N[C@@H](CS)C(=O)N[C@H](C(=O)N[C@H](C(=O)N[C@@H](Cc1ccc(O)cc1)C(=O)N[C@H](C(=O)N[C@@H](CO)C(=O)N[C@@H](CO)C(=O)N[C@@H](Cc1ccccc1)C(=O)N[C@H](C(=O)N[C@@H](Cc1ccccc1)C(=O)N[C@H](C(=O)N[C@@H](Cc1ccc(O)cc1)C(=O)N1CCC[C@H]1C(=O)N[C@@H](CCC(=O)O)C(=O)N[C@@H](C)C(=O)N[C@@H](CC(=O)O)C(=O)N[C@@H](CO)C(=O)N[C@@H](Cc1ccccc1)C(=O)N1CCC[C@H]1C(=O)N[C@@H](CO)C(=O)O)[C@@H](C)O)C(C)C)[C@@H](C)O)[C@@H](C)O)[C@@H](C)O [Penetratin-DEF-c-Fos] (H-RQIKIWFWNRRMKWKKPPCTTYTSSFVFTYPEADSFPS-OH; N-terminus and C-terminus assumed),lower efficacy than the TAT-DEF-c-Fos peptide,–,–,–,inhibition of proliferation of sNF96.2 ([1]; 100 μM): ~66%
CO[C@H]1C[C@@H]2CC[C@@H](C)[C@@](O)(O2)C(=O)C(=O)N2CCCC[C@H]2C(=O)O[C@H]([C@H](C)C[C@@H]2CC[C@@H](O)[C@H](OC)C2)CC(=O)[C@H](C)/C=C(\C)[C@@H](O)[C@@H](OC)C(=O)[C@H](C)C[C@H](C)/C=C/C=C/C=C/1C [Rapamycin],–,–,–,–,IC50 [4]: ~10 mM
CC(=O)O[C@H]1C(=O)[C@@]2(C)[C@H]([C@H](OC(=O)c3ccccc3)[C@]3(O)C[C@H](OC(=O)[C@H](O)[C@@H](NC(=O)c4ccccc4)c4ccccc4)C(C)=C1C3(C)C)[C@]1(OC(C)=O)CO[C@@H]1C[C@@H]2O [Paclitaxel],–,–,efficient,significant but transient effect,–
"N#CC(=C(/N)Sc1ccccc1N)/C(C#N)=C(\N)Sc1ccccc1N [Peptide U0126, U0126]",–,failed to inhibit proliferation,efficient,lack of effect,effect on vSMC invasiveness (wound healing) (vSMC; listed as classical MEK inhibitor): failed to block invasiveness
TAT-DEF-JunB: SEQ ID NO: 37 GRKKRRQRRRPPTTPTPPGQYFYPRGGGSGGGAG (pepsignal),lower efficacy than the TAT-DEF-c-Fos peptide,–,–,–,–
